Results taken from patent US7704995B2 (Exelixis, Inc., priority 2003, dated 2010).
pIC50: −log10 of the molar value.

What was measured:
Experiment in all cases: Kinase specificity assay (33P phosphoryl transfer, LCCA or AlphaScreen)
Assay type in all cases: biochemical
EMK = EMK (Homo sapiens, UniProt Q7KZI7); conditions: ATP close to KM; read-out: EMK inhibition, IC50
Experimental: (§1) Kinase activity and compound inhibition are investigated using one or more of the three assay formats described below. The ATP concentrations for each assay are selected to be close to the Michaelis-Menten constant (KM) for each individual kinase. Dose-response experiments are performed at 10 different inhibitor concentrations in a 384-well plate format. The data are fitted to the following four-parameter equation: Y=Min+(Max−Min)/(1+(X/IC50)^H) where Y is the observed signal, X is the inhibitor concentration, Min is the background signal in the absence of enzyme (0% enzyme activity), Max is the signal in the absence of inhibitor (100% enzyme activity), IC50 is the inhibitor concentration at 50% enzyme inhibition and H represents the empirical Hill's slope to measure the cooperativity. Typically H is close to unity. ^33P Phosphoryl Transfer Assay:
(§2) Greiner 384-well white, clear bottom, high binding plates are coated with 2 μg/well of protein or peptide substrate in a 50 μL volume overnight at ambient temperature. The coating buffer typically contains 40 μg/mL substrate, 22.5 mM Na2CO3, 27.5 mM NaHCO3, 150 mM NaCl and 3 mM NaN3. The coating solution is aspirated and the plates are washed once with 50 μL of assay buffer and padded dry. Subsequently compounds and enzymes are mixed with γ^33P-ATP (3.3 μCi/nmol) in a total volume of 20 uL in suitable assay buffers. The mixture is incubated at ambient temperature for 1.5-2.5 hrs and terminated by aspiration using a Molecular Devices EMBLA 96-head plate washer. The plates are subsequently washed 6-12 times with PBST or TBS buffer. Scintillation fluid (50 μl/well) is then added, the plates are sealed and activity assessed by liquid scintillation spectrometry using a Perkin Elmer MicroBeta TriLux.
(§3) In the LCCA assays, kinase activity is measured as the percent ATP consumed following the kinase reaction using luciferase-luciferin-coupled chemiluminescence. Greiner 384-well white, clear bottom, medium binding plates are used for LCCA. Briefly, the kinase reaction is initiated by mixing compounds, ATP and kinase in a 20 uL volume. The mixture is incubated at ambient temperature for 2-4 hrs. At the end of the kinase reaction, a 20 uL luciferase-luciferin mix is added and the chemiluminescent signal is read using a Wallac Victor^2 reader. The luciferase-luciferin mix consists of 50 mM HEPES, pH 7.8, 8.5 ug/mL oxalic acid (pH 7.8), 5 (or 50) mM DTT, 0.4% Triton X-100, 0.25 mg/mL coenzyme A, 63 uM AMP, 28 ug/mL luciferin and 40,000 units of light/mL luciferase. For the LCCA assays, total ATP consumption has been standardized to 25-45% and the IC50 values correlates well with those determined by radiometric assays.
(§4) AlphaScreen technology is a proximity assay which utilizes the increase in fluorescent signal when donor and acceptor beads are close in proximity. Biotinylated poly(Glu,Tyr) 4:1 is used as the kinase substrate, in conjunction with streptavidin-coated donor beads and anti-phosphortyrosine antibody PY100-coated acceptor beads. Upon phosphorylation, the peptide substrate can bind to both donor and acceptor beads giving rise to an increase in fluorescence. Compounds, ATP, biotinylated poly(Glu, Tyr) and kinases are mixed in a volume of 20 uL for 1 hr at ambient temperature using Greiner 384-well white clear bottom medium binding plates. Following incubation a 10 uL solution containing […] AlphaScreen beads, 75 mM Hepes, pH 7.4, 300 mM NaCl, 120 mM EDTA, 0.3% BSA and 0.03% Tween-20 is added to each well. After 2-16 hr incubation of the beads, plates are read in a Perkin Elmer AlphaQuest reader. The IC50 values correlates well with those of radiometric assays.

Flt1 = Flt1 (Homo sapiens, UniProt P17948); conditions: ATP close to KM; read-out: Flt1 inhibition, IC50
Experimental: as §1, §2, §3, §4

EphB4 = target: T1, EphB4 (Homo sapiens, UniProt P54760); conditions: ATP close to KM; read-out: EphB4 inhibition, IC50
T1 sequence (P54760 16-987): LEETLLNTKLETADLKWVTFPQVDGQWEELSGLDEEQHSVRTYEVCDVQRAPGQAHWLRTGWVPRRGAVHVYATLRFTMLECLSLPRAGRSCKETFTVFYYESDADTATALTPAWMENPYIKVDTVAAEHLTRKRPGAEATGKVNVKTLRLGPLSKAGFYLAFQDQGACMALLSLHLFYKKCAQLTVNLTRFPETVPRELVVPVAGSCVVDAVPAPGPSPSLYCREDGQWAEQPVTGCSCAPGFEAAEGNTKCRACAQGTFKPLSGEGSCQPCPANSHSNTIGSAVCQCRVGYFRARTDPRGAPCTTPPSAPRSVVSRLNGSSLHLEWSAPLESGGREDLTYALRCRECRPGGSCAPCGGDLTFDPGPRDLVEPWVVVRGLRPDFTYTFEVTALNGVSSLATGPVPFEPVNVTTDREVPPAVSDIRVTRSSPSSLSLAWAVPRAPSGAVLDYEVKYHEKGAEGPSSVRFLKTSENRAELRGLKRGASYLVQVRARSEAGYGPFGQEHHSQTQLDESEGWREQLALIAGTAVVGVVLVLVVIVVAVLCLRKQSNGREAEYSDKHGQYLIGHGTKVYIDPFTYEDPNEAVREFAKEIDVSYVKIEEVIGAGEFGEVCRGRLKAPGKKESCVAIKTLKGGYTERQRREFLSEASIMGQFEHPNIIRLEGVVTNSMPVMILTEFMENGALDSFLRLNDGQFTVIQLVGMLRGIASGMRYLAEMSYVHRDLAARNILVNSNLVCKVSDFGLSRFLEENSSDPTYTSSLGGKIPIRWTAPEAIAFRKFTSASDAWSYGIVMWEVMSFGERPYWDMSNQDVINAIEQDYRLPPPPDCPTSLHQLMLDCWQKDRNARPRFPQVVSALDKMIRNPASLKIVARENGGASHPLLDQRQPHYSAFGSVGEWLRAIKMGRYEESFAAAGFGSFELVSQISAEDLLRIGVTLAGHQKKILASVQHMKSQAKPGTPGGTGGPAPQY
Experimental: as §1, §2, §3, §4

EMK, sequence (Q7KZI7 whole entry): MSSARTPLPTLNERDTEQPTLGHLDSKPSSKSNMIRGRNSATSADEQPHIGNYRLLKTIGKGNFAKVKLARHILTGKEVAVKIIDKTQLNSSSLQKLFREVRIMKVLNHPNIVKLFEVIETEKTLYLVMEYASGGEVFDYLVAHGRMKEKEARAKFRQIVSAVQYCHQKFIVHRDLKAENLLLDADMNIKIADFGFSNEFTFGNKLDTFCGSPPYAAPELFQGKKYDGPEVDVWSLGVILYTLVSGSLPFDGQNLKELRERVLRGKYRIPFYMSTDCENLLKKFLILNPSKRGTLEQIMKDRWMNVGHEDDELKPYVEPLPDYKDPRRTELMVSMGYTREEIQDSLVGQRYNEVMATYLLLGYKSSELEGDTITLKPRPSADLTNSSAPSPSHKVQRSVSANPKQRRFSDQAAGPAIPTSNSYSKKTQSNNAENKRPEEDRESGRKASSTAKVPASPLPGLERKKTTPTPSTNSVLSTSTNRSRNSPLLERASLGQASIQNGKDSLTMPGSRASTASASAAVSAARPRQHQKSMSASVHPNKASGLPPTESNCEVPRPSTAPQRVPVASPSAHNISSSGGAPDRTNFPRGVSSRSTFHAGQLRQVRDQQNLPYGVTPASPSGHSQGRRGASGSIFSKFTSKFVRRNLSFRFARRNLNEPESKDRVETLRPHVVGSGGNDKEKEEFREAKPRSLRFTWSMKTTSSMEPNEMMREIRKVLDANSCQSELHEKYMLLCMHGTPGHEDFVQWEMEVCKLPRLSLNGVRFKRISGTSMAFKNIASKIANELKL
Flt1, sequence (P17948 27-1338): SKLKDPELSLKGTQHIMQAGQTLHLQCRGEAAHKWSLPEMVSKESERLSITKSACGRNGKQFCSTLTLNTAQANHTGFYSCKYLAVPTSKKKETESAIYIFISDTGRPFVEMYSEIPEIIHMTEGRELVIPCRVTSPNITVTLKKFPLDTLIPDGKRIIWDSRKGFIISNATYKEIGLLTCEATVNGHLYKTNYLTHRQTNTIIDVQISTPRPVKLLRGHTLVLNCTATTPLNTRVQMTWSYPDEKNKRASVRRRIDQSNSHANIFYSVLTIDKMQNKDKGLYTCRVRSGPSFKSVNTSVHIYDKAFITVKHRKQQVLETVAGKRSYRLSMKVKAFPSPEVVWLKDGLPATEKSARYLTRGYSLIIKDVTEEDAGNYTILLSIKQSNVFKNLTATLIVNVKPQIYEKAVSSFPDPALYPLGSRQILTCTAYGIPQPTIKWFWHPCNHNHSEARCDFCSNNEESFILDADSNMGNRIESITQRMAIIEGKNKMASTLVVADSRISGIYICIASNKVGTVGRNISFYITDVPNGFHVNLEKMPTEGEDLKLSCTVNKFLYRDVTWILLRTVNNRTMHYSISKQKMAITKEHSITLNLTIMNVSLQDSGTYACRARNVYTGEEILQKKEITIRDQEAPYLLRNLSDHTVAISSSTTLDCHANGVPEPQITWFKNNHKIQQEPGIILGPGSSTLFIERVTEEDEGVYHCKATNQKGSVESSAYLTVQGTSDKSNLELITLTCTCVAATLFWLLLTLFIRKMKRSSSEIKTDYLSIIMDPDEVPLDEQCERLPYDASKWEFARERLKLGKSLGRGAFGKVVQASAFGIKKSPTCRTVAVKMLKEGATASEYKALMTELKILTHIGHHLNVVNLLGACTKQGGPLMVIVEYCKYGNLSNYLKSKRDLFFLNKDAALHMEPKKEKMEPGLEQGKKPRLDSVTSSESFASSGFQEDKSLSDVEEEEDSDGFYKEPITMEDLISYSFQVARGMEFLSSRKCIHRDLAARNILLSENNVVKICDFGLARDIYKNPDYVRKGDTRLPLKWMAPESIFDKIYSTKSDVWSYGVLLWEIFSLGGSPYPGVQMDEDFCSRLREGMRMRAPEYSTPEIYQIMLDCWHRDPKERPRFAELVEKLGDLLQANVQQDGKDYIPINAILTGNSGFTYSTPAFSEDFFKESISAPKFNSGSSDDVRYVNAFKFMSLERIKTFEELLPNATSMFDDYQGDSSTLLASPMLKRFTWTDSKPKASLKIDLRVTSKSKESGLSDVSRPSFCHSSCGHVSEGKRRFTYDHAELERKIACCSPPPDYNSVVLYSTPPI

SMILES: NC(=O)c1nc(-c2cccc3ccccc23)cnc1N [Example 2, 3-Amino-6-naphthalen-1-ylpyrazine-2-carboxamide]
- pIC50 (EMK): 5.00 to 6.00
- pIC50 (Flt1): 6.00 to 7.30
- pIC50 (EphB4): ≤ 5.00
